Data from patent publication US7897765B2, “Therapeutic compounds and uses thereof” (Elixir Pharmaceuticals, Inc., priority 2003, dated 2011).

Target: GHS-R (Homo sapiens, UniProt Q92847)
Assay: cell based assay of GHS-R antagonist/agonist activity
Parameters: key: A refers to a compound having antagonist activity with Ki<100 nM in a cell based assay; B refers to a compound having agonist activity with EC50<100 nM in a cell based assay; C refers to a compound having antagonist activity of Ki>100 nM and <1500 nM in a cell based assay; D refers to a compound having antagonist activity with Ki, <100 nM and agonist activity with EC50<100 nM in a cell-based assay; E refers to other exemplary compounds
Conditions: GHS-R antagonist Ki and/or agonist EC50 class
Procedure: Cell-Based Activity Assays. For example, the ability of the compound to modulate accumulation of a second messenger signaling component downstream of GHS-R can be evaluated. For example, inositol phosphates (IP), as a result of Gq signaling in a mammalian cell, e.g., a Cos-7 cells. Other tissue culture cells, Xenopus oocytes, and primary cells can also be used.
Phosphatidylinositol turnover assay. One day after transfection COS-7 cells are incubated for 24 hours with 5 μCi of [^3H]-myo-inositol in 1 ml medium supplemented with 10% fetal calf serum, 2 mM glutamine and 0.01 mg/ml gentamicin per well. Cells are then washed twice in buffer, 20 mM HEPES, pH 7.4, supplemented with 140 mM NaCl, 5 mM KCl, 1 mM MgSO4, 1 mM CaCl2, mM glucose, 0.05% (w/v) bovine serum; and incubated in 0.5 ml buffer supplemented with 10 mM LiCl at 37° C. for 30 min. For some assays, it is also useful to incubate the cells with adenosine deaminase ADA (200 U/mg, Boehringer Mannheim, Germany) for 30 min in a concentration of 1 U/ml.
After incubation with the compound of interest for 45 min at 37° C., cells are extracted with 10% ice-cold perchloric acid and placed on ice for 30 min. The resulting supernatants are neutralized with KOH in HEPES buffer, and [^3H]-inositol phosphate is purified on Bio-Rad AG 1-X8 anion exchange resin as described. Assays can be run in duplicate, triplicate, etc.
Other second messenger assays. Another second messenger that can be evaluated is Ca^2+. Ca^2+ mobilization can be evaluated using a calcium sensitive detector, such as aequorin protein or a dye, e.g., FURA-2. In an exemplary assay, calcium mobilization is evaluated in a recombinant cell that expresses GHS-R and aequorin.
Gene expression assay. HEK293 cells (30 000 cells/well) seeded in 96-well plates are transiently transfected with a mixture of pFA2-CREB and pFR-Luc reporter plasmid (PathDetect™ CREB trans-Reporting System, Stratagene) and nucleic acid encoding GHS. One day after transfection, cells are treated with the compound of interest in an assay volume of 100 μl medium for 5 hrs. After treatment, cells are cultured in low serum (2.5%). After the incubation period, the assay is ended by washing the cells twice with PBS and adding 100 μl luciferase assay reagent (LucLite™, Packard Bioscience). Luminescence is measured (e.g., as relative light units (RLU)) using in a luminometer such as the TopCounter™ (Packard Bioscience) for 5 sec.
IC50 and EC50 values can be determined by nonlinear regression, e.g., using the Prism 3.0 software (GraphPad Software, San Diego).

GHS-R, sequence (Q92847 whole entry, species assumed): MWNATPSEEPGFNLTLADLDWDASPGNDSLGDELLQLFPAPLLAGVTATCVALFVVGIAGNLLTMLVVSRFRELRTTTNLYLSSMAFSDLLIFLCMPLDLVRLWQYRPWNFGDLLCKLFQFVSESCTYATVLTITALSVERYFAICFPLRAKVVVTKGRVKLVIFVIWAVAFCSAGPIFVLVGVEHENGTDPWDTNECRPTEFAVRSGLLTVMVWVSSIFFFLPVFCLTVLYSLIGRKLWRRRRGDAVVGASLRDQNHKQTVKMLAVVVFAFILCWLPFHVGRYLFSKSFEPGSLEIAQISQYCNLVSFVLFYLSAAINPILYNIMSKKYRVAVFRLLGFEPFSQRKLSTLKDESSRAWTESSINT

CN([C@H](COCc1ccccc1)C(=O)N1CCC2(CC1)CN(S(C)(=O)=O)c1ccccc12)S(=O)(=O)CCCCl [Compound 160]
Activity: E

CN(C)CCC(=O)N[C@H](COCc1ccccc1)C(=O)N1CCC2(CC1)CN(S(C)(=O)=O)c1ccccc12 [Compound 89]
Activity: E

C[C@H](C(=O)N[C@H](COCc1ccccc1)C(=O)N1CCC2(CC1)CN(S(C)(=O)=O)c1ccccc12)N(C)C [Compound 14]
Activity: A (A refers to a compound having antagonist activity with Ki<100 nM in a cell based assay)

CC(C)N1CCC(C(=O)N[C@H](COCc2ccccc2)C(=O)N2CCC3(CC2)CN(S(C)(=O)=O)c2ccccc23)CC1 [Compound 110]
Activity: E

CS(=O)(=O)N1CC2(CCN(C(=O)[C@@H](COCc3ccccc3)NC(=O)c3ccc(CN)cc3)CC2)c2ccccc21 [Compound 121]
Activity: E

COCC(=O)N1CC2(CCN(C(=O)[C@@H](COCc3ccccc3)NC(=O)OC(C)(C)C)CC2)c2ccccc21 [Compound 57]
Activity: E

CC(C)NCCS(=O)(=O)N[C@H](COCc1ccccc1)C(=O)N1CCC2(CC1)CN(S(C)(=O)=O)c1ccccc12 [Compound 146]
Activity: C (C refers to a compound having antagonist activity of Ki>100 nM and <1500 nM in a cell based assay)

CS(=O)(=O)N1CC2(CCN(C(=O)[C@@H](COCc3ccccc3)NS(=O)(=O)CCN3CCCC3)CC2)c2ccccc21.Cl [Compound 28]
Activity: C (C refers to a compound having antagonist activity of Ki>100 nM and <1500 nM in a cell based assay)

CN1CCC(C(=O)NC(Cc2ccc3ccccc3c2)C(=O)N2CCC3(CC2)CN(S(C)(=O)=O)c2ccccc23)CC1 (stereo not shown) [Compound 138]
Activity: E

CN(C)CCNC(=O)N[C@H](COCc1ccccc1)C(=O)N1CCC2(CC1)CN(S(C)(=O)=O)c1ccccc12 [Compound 94]
Activity: E

CS(=O)(=O)N1CC2(CCN(C(=O)[C@@H](COCc3ccccc3)NC(=O)C3=NCCN3)CC2)c2ccccc21 [Compound 80]
Activity: E

C[C@@H](C(=O)N[C@H](COCc1ccccc1)C(=O)N1CCC2(CC1)CN(S(C)(=O)=O)c1ccccc12)N(C)C [Compound 81]
Activity: E

CS(=O)(=O)N1CC2(CCN(C(=O)[C@@H](COCc3ccccc3)NS(=O)(=O)CCCN3CCCC3)CC2)c2ccccc21 [Compound 159]
Activity: A (A refers to a compound having antagonist activity with Ki<100 nM in a cell based assay)

CC(C)CCN1CCC(C(=O)N[C@H](COCc2ccccc2)C(=O)N2CCC3(CC2)CN(S(C)(=O)=O)c2ccccc23)CC1 [Compound 43]
Activity: C (C refers to a compound having antagonist activity of Ki>100 nM and <1500 nM in a cell based assay)

CS(=O)(=O)N1CC2(CCN(C(=O)[C@@H](COCc3ccccc3)NC(=S)Nc3cccnc3)CC2)c2ccccc21 [Compound 86]
Activity: E

CS(=O)(=O)N1CC2(CCN(C(=O)[C@@H](COCc3ccccc3)NC(=O)C3=CCNCC3)CC2)c2ccccc21 [Compound 16]
Activity: C (C refers to a compound having antagonist activity of Ki>100 nM and <1500 nM in a cell based assay)

CN1CCN(CCS(=O)(=O)N[C@H](COCc2ccccc2)C(=O)N2CCC3(CC2)CN(S(C)(=O)=O)c2ccccc23)CC1 [Compound 46]
Activity: C (C refers to a compound having antagonist activity of Ki>100 nM and <1500 nM in a cell based assay)

CC(C)(C)CC(=O)N[C@H](COCc1ccccc1)C(=O)N1CCC2(CC1)CN(S(C)(=O)=O)c1ccccc12 [Compound 52]
Activity: E

CN1CCC[C@H](C(=O)N[C@H](COCc2ccccc2)C(=O)N2CCC3(CC2)CN(S(C)(=O)=O)c2ccccc23)C1 [Compound 116]
Activity: E

CC(C)(C)OC(=O)N1CCC(CNC(COCc2ccccc2)C(=O)N2CCC3(CC2)CN(S(C)(=O)=O)c2ccccc23)CC1 (stereo not shown) [Compound 103]
Activity: E

CS(=O)(=O)N1CC2(CCN(C(=O)[C@@H](COCc3ccccc3)NC(=O)NCCN3CCCCC3)CC2)c2ccccc21 [Compound 97]
Activity: E

CC(=O)OCC(=O)N[C@H](COCc1ccccc1)C(=O)N1CCC2(CC1)CN(S(C)(=O)=O)c1ccccc12 [Compound 34]
Activity: C (C refers to a compound having antagonist activity of Ki>100 nM and <1500 nM in a cell based assay)

CN1CCC(S(=O)(=O)N[C@H](COCc2ccccc2)C(=O)N2CCC3(C=Cc4ccccc43)CC2)CC1 [Compound 154]
Activity: C (C refers to a compound having antagonist activity of Ki>100 nM and <1500 nM in a cell based assay)

Cc1ccc(CSC[C@H](NC(=O)C2CCN(C)CC2)C(=O)N2CCC3(CC2)CN(S(C)(=O)=O)c2ccccc23)cc1 [Compound 140]
Activity: E

COC(=O)CC(=O)N1CC2(CCN(C(=O)[C@@H](COCc3ccccc3)NC(=O)OC(C)(C)C)CC2)c2ccccc21 [Compound 60]
Activity: E

CS(=O)(=O)N1CC2(CCN(C(=O)[C@@H](COCc3ccccc3)NS(=O)(=O)CCN3CCOCC3)CC2)c2ccccc21 [Compound 144]
Activity: E

COCCCS(=O)(=O)N[C@H](COCc1ccccc1)C(=O)N1CCC2(CC1)CN(S(C)(=O)=O)c1ccccc12 [Compound 161]
Activity: E

COc1cccc(C(=O)N2CC3(CCN(C(=O)[C@@H](COCc4ccccc4)NC(=O)CN(C)C)CC3)c3ccccc32)c1 [Compound 74]
Activity: E

CN(C)CC(=O)N1CC2(CCN(C(=O)[C@@H](COCc3ccccc3)NC(=O)OC(C)(C)C)CC2)c2ccccc21 [Compound 63]
Activity: E

CN[C@H](C)C(=O)N[C@H](COCc1ccccc1)C(=O)N1CCC2(CC1)CN(S(C)(=O)=O)c1ccccc12 [Compound 130]
Activity: B (B refers to a compound having agonist activity with EC50<100 nM in a cell based assay)

CS(=O)(=O)N1CC2(CCN(C(=O)[C@@H](COCc3ccccc3)NC(=O)C3CCNCC3)CC2)c2ccccc21 [Compound 128]
Activity: B (B refers to a compound having agonist activity with EC50<100 nM in a cell based assay)

CC(=O)N(CC1CCN(C(=O)OC(C)(C)C)CC1)[C@H](COCc1ccccc1)C(=O)N1CCC2(CC1)CN(S(C)(=O)=O)c1ccccc12 [Compound 108]
Activity: E

CN(C)CC(=O)N[C@H](COCc1ccccc1)C(=O)N1CCC2(C=Cc3ccccc32)CC1 [Compound 29]
Activity: C (C refers to a compound having antagonist activity of Ki>100 nM and <1500 nM in a cell based assay)

CN1CCC(N[C@H](COCc2ccccc2)C(=O)N2CCC3(CC2)CN(S(C)(=O)=O)c2ccccc23)CC1 [Compound 84]
Activity: E

CN1CCC(C(=O)N[C@H](COCc2ccccc2)C(=O)N2CCC3(CC2)CN(S(C)(=O)=O)c2ccccc23)C1 (stereo partly shown) [Compound 115]
Activity: E

CC(C)(C)NC(=O)N[C@H](COCc1ccccc1)C(=O)N1CCC2(CC1)CN(S(C)(=O)=O)c1ccccc12 [Compound 17]
Activity: C (C refers to a compound having antagonist activity of Ki>100 nM and <1500 nM in a cell based assay)

CC(C)(C)OC(=O)NC(C)(C)C(=O)N[C@H](COCc1ccccc1)C(=O)N1CCC2(CC1)CN(S(C)(=O)=O)c1ccccc12 [Compound 50]
Activity: E

CNCC(=O)N[C@H](COCc1ccccc1)C(=O)N1CCC2(CC1)CN(S(C)(=O)=O)c1ccccc12 [Compound 70]
Activity: E

CS(=O)(=O)N1CC2(CCN(C(=O)C(COCc3ccccc3)NCC3CCNCC3)CC2)c2ccccc21 (stereo not shown) [Compound 104]
Activity: E

CCN(C)CCC(=O)N[C@H](COCc1ccccc1)C(=O)N1CCC2(CC1)CN(S(C)(=O)=O)c1ccccc12 [Compound 15]
Activity: C (C refers to a compound having antagonist activity of Ki>100 nM and <1500 nM in a cell based assay)

CN1CCC(C(=O)N[C@H](Cc2ccccc2)C(=O)N2CCC3(CC2)CN(S(C)(=O)=O)c2ccccc23)CC1 [Compound 45]
Activity: C (C refers to a compound having antagonist activity of Ki>100 nM and <1500 nM in a cell based assay)

CN1C2CCC1CC(S(=O)(=O)N[C@H](COCc1ccccc1)C(=O)N1CCC3(CC1)CN(S(C)(=O)=O)c1ccccc13)C2 (stereo partly shown) [Compound 152]
Activity: C (C refers to a compound having antagonist activity of Ki>100 nM and <1500 nM in a cell based assay)

CS(=O)(=O)N1CC2(CCN(C(=O)[C@@H](COCc3ccccc3)NS(=O)(=O)CCCN3CCOCC3)CC2)c2ccccc21 [Compound 149]
Activity: E
